From patent publication US5516784A, “Anti-HIV (AIDS) agents” (Schering Corporation, priority 1994, dated 1996) come the findings set out here.

As a reminder, the inhibition is the percentage by which the read-out fell short of the control. By IC50 is commonly meant the concentration that inhibits the measured activity by half.

The first assay addresses HIV1 protease (Human immunodeficiency virus type 1 group M subtype B, UniProt P04585). As to the kind of experiment: Test 3: inhibition of proteolytic activity of HIV-1 protease by scintillation proximity assay (SPA). Format: biochemical. To be noted: IC50 >500 nM; read-out: Enzyme Assays (SPA) % inhibition. From the text:
TEST 3-INHIBITION OF PROTEOLYTIC ACTIVITY OF HIV-1-PROTEASE AS DETERMINED BY SCINTILLATION […] ASSAY (SPA).
This is an alternative assay to test #1 and is used to determine the ability of compounds to inhibit the HIV1 protease activity. The SPA assay for HIV1 protease has been developed by Amersham Corporation, Arlington Heights, Ill., and is available for commercial use. In this system the substrate for HIV1 protease, AcN-(I^125)[…]SPA bead, is cleaved by the HIV1 protease at the Phe-Phe bond releasing the I^125 -labelled peptide fragment from the SPA bead. This event causes removal of detectable signal from the microsphere bead indicated by reduction in radioactivity (measured in CPM), which is proportional to the proteolytic activity. The substrate, and the HIV 1 protease were incubated in presence of synthetic compound in various dilutions at room temperature for 40 minutes, and the concentration of the compound required to inhibit the proteolytic activity by 50% (IC50) was determined.
For the compound `CCC(C)[C@H](NC(=O)c1ccc2ccccc2n1)C(=O)N[C@@H](Cc1ccccc1)[C@H](O)COc1ccccc1C(=O)NC(C)(C)C` (stereo partly drawn) [Compound 38], the inhibition at 0.5 µM turned out to be 46%.

Still in this assay, the particulars now being: SPA; room temperature, 40 minutes; read-out: Enzyme Assays (SPA) IC50.
Take `NC(=O)C[C@H](NC(=O)c1ccc2ccccc2n1)C(=O)N[C@@H](Cc1ccccc1)[C@H](O)CSC1CCCC1C(=O)Nc1ccccc1` (single isomer, unassigned) [Compound 15]: the IC50 was more than 200 nM.

Turning to `NC(=O)C[C@H](NC(=O)c1ccc2ccccc2n1)C(=O)N[C@@H](Cc1ccccc1)[C@H](O)CSC1CCCC1C(=O)Nc1ccccc1` (single isomer, unassigned) [Compound 17], the IC50 turned out to be 200 nM.

Consider `CC(C)(C)NC(=O)c1cccnc1OC[C@H](O)[C@H](Cc1ccccc1)NC(=O)[C@H](CC(N)=O)NC(=O)c1ccc2ccccc2n1` [Compound 6], for which the IC50 is more than 500 nM.

Consider `CC(C)(C)NC(=O)c1c(OC[C@@H](O)[C@H](Cc2ccccc2)NC(=O)[C@H](CC(N)=O)NC(=O)c2ccc3ccccc3n2)ccc2ccccc12` [Compound 10], for which the IC50 stood at 110 nM.

On to `CC(C)(C)NC(=O)c1cc2ccccc2cc1OC[C@@H](O)[C@H](Cc1ccccc1)NC(=O)[C@H](CC(N)=O)NC(=O)c1ccc2ccccc2n1` [Compound 11], for which the IC50 came out at 280 nM.

Regarding `CC(C)(C)NC(=O)c1ccc2ccccc2c1OC[C@@H](O)[C@H](Cc1ccccc1)NC(=O)[C@H](CC(N)=O)NC(=O)c1ccc2ccccc2n1` [Compound 12], the IC50 is 230 nM.

For the compound `NC(=O)C[C@H](NC(=O)c1ccc2ccccc2n1)C(=O)N[C@@H](Cc1ccccc1)[C@@H](O)CSC1CCCC1C(=O)Nc1ccccc1` (stereo partly drawn) [Compound 14], the IC50 was more than 200 nM.

Consider `NC(=O)C[C@H](NC(=O)c1ccc2ccccc2n1)C(=O)N[C@@H](Cc1ccccc1)[C@H](O)CSC1CCCC1C(=O)Nc1ccccc1` (stereo partly drawn) [Compound 21], for which the IC50 is more than 200 nM.

`NC(=O)C[C@H](NC(=O)c1ccc2ccccc2n1)C(=O)N[C@@H](Cc1ccccc1)[C@@H](O)CSc1nc2ccccc2[nH]1` [Compound 22]: the IC50 is more than 200 nM.

Turning to `CC(C)(C)NC(=O)c1ccc(SC[C@H](O)[C@H](Cc2ccccc2)NC(=O)[C@H](CC(N)=O)NC(=O)c2ccc3ccccc3n2)cc1` [Compound 23], the IC50 is more than 200 nM.

As for `CC(C)(C)NC(=O)c1ccc(SC[C@@H](O)[C@H](Cc2ccccc2)NC(=O)[C@H](CC(N)=O)NC(=O)c2ccc3ccccc3n2)cc1` [Compound 24], the IC50 was more than 200 nM.

For the compound `CC(C)(C)NC(=O)c1cccc(SC[C@H](O)[C@H](Cc2ccccc2)NC(=O)[C@H](CC(N)=O)NC(=O)c2ccc3ccccc3n2)c1` [Compound 25], the IC50 is more than 200 nM.

Turning to `CC(C)(C)NC(=O)c1cccc(SC[C@@H](O)[C@H](Cc2ccccc2)NC(=O)[C@H](CC(N)=O)NC(=O)c2ccc3ccccc3n2)c1` [Compound 26], the IC50 is more than 200 nM.

Regarding `CC(C)(C)NC(=O)CCSC[C@@H](O)[C@H](Cc1ccccc1)NC(=O)[C@H](CC(N)=O)NC(=O)c1ccc2ccccc2n1` [Compound 28], the IC50 was more than 200 nM.

In the case of `NC(=O)C[C@H](NC(=O)c1ccc2ccccc2n1)C(=O)N[C@@H](Cc1ccccc1)[C@@H](O)CSc1ccccc1C(=O)NC12CC3CC(CC(C3)C1)C2` [Compound 29], the half-inhibitory concentration (IC50) is more than 200 nM.

With `CC(C)(C)NC(=O)c1ccccc1SC[C@@H](O)[C@H](Cc1ccccc1)NC(=O)[C@H](Cc1ccccc1)NC(=O)c1ccc2ccccc2n1` [Compound 34], the IC50 was more than 200 nM.

In the case of `CCC(C)[C@H](NC(=O)c1ccc2ccccc2n1)C(=O)N[C@@H](Cc1ccccc1)[C@H](O)CSc1ccccc1C(=O)NC(C)(C)C` (stereo partly drawn) [Compound 36], the 50% inhibitory concentration (IC50) came out at 132 nM.

For the compound `CCC(C)[C@H](NC(=O)c1ccc2ccccc2n1)C(=O)N[C@@H](Cc1ccccc1)[C@H](O)COc1ccccc1C(=O)NC(C)(C)C` (stereo partly drawn) [Compound 38], the IC50 is more than 500 nM.

On to `CCC(C)C(NC(=O)c1ccc2ccccc2n1)C(=O)N[C@@H](Cc1ccccc1)[C@H](O)CSc1ccccc1C(=O)NC(C)(C)C` (stereo partly drawn) [Compound 39], for which the IC50 was more than 200 nM.

With `CN(C)C(=O)C[C@H](NC(=O)c1ccc2ccccc2n1)C(=O)N[C@@H](Cc1ccccc1)[C@H](O)CSc1ccccc1C(=O)NC(C)(C)C` [Compound 42], the IC50 is more than 200 nM.
